Measurements as given in PubChem BioAssay (NCI).
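Cultured in 96-well plates, cells were exposed to test compound for 48 hours across five concentrations. TGI: total growth inhibition.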

What was measured:
Assay in all cases: NCI tumour cell line growth inhibition, 48 h
786-0 renal = test system: 786-0 renal
A498 renal = test system: A498 renal
A549 NSCLC = test system: A549 NSCLC
ACHN renal = test system: ACHN renal
BT-549 breast = test system: BT-549 breast
CAKI-1 renal = test system: CAKI-1 renal
CCRF-CEM leukemia = test system: CCRF-CEM leukemia
COLO 205 colon = test system: COLO 205 colon
DU-145 prostate = test system: DU-145 prostate
EKVX NSCLC = test system: EKVX NSCLC
HCC-2998 colon = test system: HCC-2998 colon
HCT-116 colon = test system: HCT-116 colon
HCT-15 colon = test system: HCT-15 colon
HL-60(TB) leukemia = test system: HL-60(TB) leukemia
HOP-62 NSCLC = test system: HOP-62 NSCLC
HOP-92 NSCLC = test system: HOP-92 NSCLC
HS 578T breast = test system: HS 578T breast
HT29 colon = test system: HT29 colon
IGROV1 ovarian = test system: IGROV1 ovarian
K-562 leukemia = test system: K-562 leukemia
KM12 colon = test system: KM12 colon
LOX IMVI melanoma = test system: LOX IMVI melanoma
M14 melanoma = test system: M14 melanoma
MALME-3M melanoma = test system: MALME-3M melanoma
MCF7 breast = test system: MCF7 breast
MDA-MB-231 breast = test system: MDA-MB-231 breast
MDA-MB-435 = test system: MDA-MB-435
MDA-N = test system: MDA-N
MOLT-4 leukemia = test system: MOLT-4 leukemia
NCI-H226 lung = test system: NCI-H226 lung
NCI-H23 lung = test system: NCI-H23 lung
NCI-H460 lung = test system: NCI-H460 lung
NCI-H522 lung = test system: NCI-H522 lung
NCI/ADR-RES ovarian = test system: NCI/ADR-RES ovarian
OVCAR-3 ovarian = test system: OVCAR-3 ovarian
OVCAR-4 ovarian = test system: OVCAR-4 ovarian
OVCAR-5 ovarian = test system: OVCAR-5 ovarian
OVCAR-8 ovarian = test system: OVCAR-8 ovarian
PC-3 prostate = test system: PC-3 prostate
RPMI-8226 leukemia = test system: RPMI-8226 leukemia
RXF 393 renal = test system: RXF 393 renal
SF-268 CNS = test system: SF-268 CNS
SF-295 CNS = test system: SF-295 CNS
SF-539 CNS = test system: SF-539 CNS
SK-MEL-2 melanoma = test system: SK-MEL-2 melanoma
SK-MEL-28 melanoma = test system: SK-MEL-28 melanoma
SK-MEL-5 melanoma = test system: SK-MEL-5 melanoma
SK-OV-3 ovarian = test system: SK-OV-3 ovarian
SN12C renal = test system: SN12C renal
SNB-19 CNS = test system: SNB-19 CNS
SNB-75 CNS = test system: SNB-75 CNS
SR leukemia = test system: SR leukemia
SW-620 colon = test system: SW-620 colon
T-47D breast = test system: T-47D breast
TK-10 renal = test system: TK-10 renal
U251 CNS = test system: U251 CNS
UACC-257 melanoma = test system: UACC-257 melanoma
UACC-62 melanoma = test system: UACC-62 melanoma
UO-31 renal = test system: UO-31 renal

Structure (SMILES): CCOP(=O)(OCC)/C(C#N)=C/c1cccn1N(C)C
- TGI (786-0 renal): > 100 µM
- TGI (A498 renal): > 100 µM
- TGI (A549 NSCLC): > 100 µM
- TGI (ACHN renal): > 100 µM
- TGI (BT-549 breast): > 100 µM
- TGI (CAKI-1 renal): > 100 µM
- TGI (CCRF-CEM leukemia): > 100 µM
- TGI (COLO 205 colon): > 100 µM
- TGI (DU-145 prostate): > 100 µM
- TGI (EKVX NSCLC): > 100 µM
- TGI (HCC-2998 colon): > 100 µM
- TGI (HCT-116 colon): > 100 µM
- TGI (HCT-15 colon): > 100 µM
- TGI (HL-60(TB) leukemia): > 100 µM
- TGI (HOP-62 NSCLC): > 100 µM
- TGI (HOP-92 NSCLC): > 100 µM
- TGI (HS 578T breast): > 100 µM
- TGI (HT29 colon): > 100 µM
- TGI (IGROV1 ovarian): > 100 µM
- TGI (K-562 leukemia): > 100 µM
- TGI (KM12 colon): > 100 µM
- TGI (LOX IMVI melanoma): > 100 µM
- TGI (M14 melanoma): > 100 µM
- TGI (MALME-3M melanoma): > 100 µM
- TGI (MCF7 breast): > 100 µM
- TGI (MDA-MB-231 breast): > 100 µM
- TGI (MDA-MB-435): > 100 µM
- TGI (MDA-N): > 100 µM
- TGI (MOLT-4 leukemia): > 100 µM
- TGI (NCI-H226 lung): > 100 µM
- TGI (NCI-H23 lung): > 100 µM
- TGI (NCI-H460 lung): > 100 µM
- TGI (NCI-H522 lung): > 100 µM
- TGI (NCI/ADR-RES ovarian): > 100 µM
- TGI (OVCAR-3 ovarian): > 100 µM
- TGI (OVCAR-4 ovarian): > 100 µM
- TGI (OVCAR-5 ovarian): > 100 µM
- TGI (OVCAR-8 ovarian): > 100 µM
- TGI (PC-3 prostate): > 100 µM
- TGI (RPMI-8226 leukemia): > 100 µM
- TGI (RXF 393 renal): > 100 µM
- TGI (SF-268 CNS): > 100 µM
- TGI (SF-295 CNS): > 100 µM
- TGI (SF-539 CNS): > 100 µM
- TGI (SK-MEL-2 melanoma): > 100 µM
- TGI (SK-MEL-28 melanoma): > 100 µM
- TGI (SK-MEL-5 melanoma): > 100 µM
- TGI (SK-OV-3 ovarian): > 100 µM
- TGI (SN12C renal): > 100 µM
- TGI (SNB-19 CNS): > 100 µM
- TGI (SNB-75 CNS): > 100 µM
- TGI (SR leukemia): > 100 µM
- TGI (SW-620 colon): > 100 µM
- TGI (T-47D breast): 96.3 µM
- TGI (TK-10 renal): > 100 µM
- TGI (U251 CNS): > 100 µM
- TGI (UACC-257 melanoma): > 100 µM
- TGI (UACC-62 melanoma): > 100 µM
- TGI (UO-31 renal): > 100 µM

Structure (SMILES): COc1ccc(N=C2C(=Nc3ccc(OC)cc3)N(S(=O)(=O)c3ccccc3)C(=S)N2c2ccc(OC)cc2)cc1
- TGI (786-0 renal): > 100 µM
- TGI (A549 NSCLC): > 100 µM
- TGI (ACHN renal): > 100 µM
- TGI (BT-549 breast): > 100 µM
- TGI (CAKI-1 renal): > 100 µM
- TGI (COLO 205 colon): > 100 µM
- TGI (DU-145 prostate): > 100 µM
- TGI (EKVX NSCLC): > 100 µM
- TGI (HCC-2998 colon): > 100 µM
- TGI (HCT-116 colon): > 100 µM
- TGI (HCT-15 colon): > 100 µM
- TGI (HOP-62 NSCLC): > 100 µM
- TGI (HOP-92 NSCLC): > 100 µM
- TGI (HS 578T breast): > 100 µM
- TGI (IGROV1 ovarian): > 100 µM
- TGI (K-562 leukemia): > 100 µM
- TGI (KM12 colon): > 100 µM
- TGI (M14 melanoma): > 100 µM
- TGI (MCF7 breast): > 100 µM
- TGI (MDA-MB-231 breast): 92.1 µM
- TGI (MDA-MB-435): > 100 µM
- TGI (MDA-N): > 100 µM
- TGI (MOLT-4 leukemia): > 100 µM
- TGI (NCI-H226 lung): > 100 µM
- TGI (NCI-H23 lung): > 100 µM
- TGI (NCI-H522 lung): > 100 µM
- TGI (NCI/ADR-RES ovarian): > 100 µM
- TGI (OVCAR-3 ovarian): > 100 µM
- TGI (OVCAR-5 ovarian): > 100 µM
- TGI (OVCAR-8 ovarian): > 100 µM
- TGI (PC-3 prostate): > 100 µM
- TGI (RPMI-8226 leukemia): > 100 µM
- TGI (RXF 393 renal): > 100 µM
- TGI (SF-268 CNS): > 100 µM
- TGI (SF-295 CNS): > 100 µM
- TGI (SF-539 CNS): > 100 µM
- TGI (SK-MEL-2 melanoma): > 100 µM
- TGI (SK-MEL-28 melanoma): > 100 µM
- TGI (SK-MEL-5 melanoma): > 100 µM
- TGI (SK-OV-3 ovarian): > 100 µM
- TGI (SN12C renal): > 100 µM
- TGI (SNB-19 CNS): > 100 µM
- TGI (SNB-75 CNS): 38.8 µM
- TGI (SR leukemia): > 100 µM
- TGI (SW-620 colon): > 100 µM
- TGI (T-47D breast): > 100 µM
- TGI (TK-10 renal): > 100 µM
- TGI (U251 CNS): > 100 µM
- TGI (UACC-62 melanoma): > 100 µM
- TGI (UO-31 renal): > 100 µM
